# Results as given in patent US11696956B2, “Bicyclic peptide ligands specific for EphA2” (BicycleTx Limited, priority 2017, dated 2023).
# How the values were obtained:
# [1] = test system: PC-3 xenograft; assay: Study 8: in vivo efficacy, PC-3 xenograft; details: qw
# Procedure: The major endpoint was to see if the tumor growth could be delayed or mice could be cured. Tumor volume was measured three times weekly in two dimensions using a caliper, and the volume was expressed in mm^3 using the formula: V=0.5 a×b^2 where a and b are the long and short diameters of the tumor, respectively. The tumor size was then used for calculations of T/C value. The T/C value (in percent) is an indication of antitumor effectiveness; T and C are the mean volumes of the treated and control groups, respectively, on a given day. TGI was calculated for each group using the formula: TGI (%)=[1−(Ti−T0)/(Vi−V0)]×100; Ti is the average tumor volume of a treatment group on a given day, T0 is the average tumor volume of the treatment group on the day of treatment start, Vi is the average tumor volume of the vehicle control group on the same day with Ti, and V0 is the average tumor volume of the vehicle group on the day of treatment start.
# A one-way ANOVA was performed to compare tumor volume among groups, and when a significant F-statistics (a ratio of treatment variance to the error variance) was obtained, comparisons between groups were carried out with Games-Howell test. […] P<0.05 was considered to be statistically significant.
# The tumor cells were maintained in F-12K medium supplemented with 10% heat inactivated fetal bovine serum at 37° C. in an atmosphere of 5% CO2 in air. The tumor cells were routinely subcultured twice weekly. The cells growing in an exponential growth phase were harvested and counted for tumor inoculation.
# 52 animals were randomized when the average tumor volume reached 454 mm^3.
# Tumor growth inhibition rate for test articles in the PC-3 xenograft model was calculated based on tumor volume measurements at day 20 after the start of the treatment.
# [2] = target: T1, rat EphA2 (Rattus norvegicus, UniProt D3ZBN3); assay: FP competition binding (Study 2, alternative protocol); details: summary of Table 10
# T1 construct: Rat; C-; In-house; N/A; polyHis (C); made in house
# [3] = target: T2, Mouse EphA2 (Mus musculus, UniProt Q03145); assay: as above; details: summary of Table 10
# T2 construct: EphA2 (Ecto); Mouse; C-; Sino; 50586-M08H; polyHis (C); purchased Sino Biological 50586-M08H
# [4] = target: T3, Human EphA2 (Homo sapiens, UniProt P29317); assay: as above; details: summary of Table 10
# T3 construct: EphA2 (Ecto); Human; C-terminal; R&D systems; 3035-A2; polyHis (C); purchased R&D systems 3035-A2
# T3 sequence (P29317 24-537 limits assumed): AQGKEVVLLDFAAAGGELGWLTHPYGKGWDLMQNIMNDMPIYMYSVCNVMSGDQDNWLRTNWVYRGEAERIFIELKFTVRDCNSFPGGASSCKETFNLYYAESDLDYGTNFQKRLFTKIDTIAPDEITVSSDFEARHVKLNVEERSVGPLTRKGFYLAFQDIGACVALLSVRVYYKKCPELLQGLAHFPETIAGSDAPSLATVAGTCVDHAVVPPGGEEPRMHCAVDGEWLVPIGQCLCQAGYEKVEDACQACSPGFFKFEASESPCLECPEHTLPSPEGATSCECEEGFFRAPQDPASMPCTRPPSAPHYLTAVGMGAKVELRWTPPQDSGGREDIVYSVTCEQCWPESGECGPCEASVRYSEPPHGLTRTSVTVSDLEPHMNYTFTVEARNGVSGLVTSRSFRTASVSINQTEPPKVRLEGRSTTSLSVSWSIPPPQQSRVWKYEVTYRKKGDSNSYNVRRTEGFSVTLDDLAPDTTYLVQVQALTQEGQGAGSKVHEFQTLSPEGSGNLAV
# T2 sequence (Q03145 26-538 limits assumed): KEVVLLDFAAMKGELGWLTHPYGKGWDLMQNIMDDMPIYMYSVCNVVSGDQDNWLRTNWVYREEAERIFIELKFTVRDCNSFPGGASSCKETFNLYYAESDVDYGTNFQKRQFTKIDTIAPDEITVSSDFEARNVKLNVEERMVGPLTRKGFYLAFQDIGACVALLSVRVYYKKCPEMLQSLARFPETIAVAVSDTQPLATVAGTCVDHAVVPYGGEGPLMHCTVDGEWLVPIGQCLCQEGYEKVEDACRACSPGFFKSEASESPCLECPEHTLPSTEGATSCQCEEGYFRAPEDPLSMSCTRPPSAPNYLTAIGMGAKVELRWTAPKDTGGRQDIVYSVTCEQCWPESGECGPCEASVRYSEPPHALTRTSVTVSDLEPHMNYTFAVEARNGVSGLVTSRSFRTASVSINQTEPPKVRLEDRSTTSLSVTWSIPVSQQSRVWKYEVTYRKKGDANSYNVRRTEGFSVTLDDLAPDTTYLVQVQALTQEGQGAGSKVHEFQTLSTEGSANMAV
# T1 sequence (D3ZBN3 26-205): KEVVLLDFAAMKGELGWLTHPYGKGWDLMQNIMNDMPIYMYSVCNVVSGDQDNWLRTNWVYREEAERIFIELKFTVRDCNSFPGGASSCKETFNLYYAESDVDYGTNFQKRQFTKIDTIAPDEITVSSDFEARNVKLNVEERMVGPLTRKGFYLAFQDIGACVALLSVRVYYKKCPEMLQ
compound,measurement,setting,value
CC(=O)O[C@@]12CO[C@@H]1C[C@H](O)[C@@]1(C)C(=O)[C@H](O)C3=C(C)[C@@H](OC(=O)[C@H](O)[C@@H](NC(=O)OC(C)(C)C)c4ccccc4)C[C@@](O)([C@@H](OC(=O)c4ccccc4)[C@H]21)C3(C)C [Docetaxel],animal body weight loss,[1]; 15 mg/kg,severe animal body weight loss
same,TGI,"[1]; 15 mg/kg, day 20",101.8%
same,TV (tumor volume),"[1]; 15 mg/kg, day 20",419 mm^3
same,Mean tumor volume,"[1]; 15 mpk, day 0",453 ± 62 mm^3
same,Mean tumor volume,"[1]; 15 mpk, day 2",584 ± 72 mm^3
same,Mean tumor volume,"[1]; 15 mpk, day 4",632 ± 56 mm^3
same,Mean tumor volume,"[1]; 15 mpk, day 6",636 ± 48 mm^3
same,Mean tumor volume,"[1]; 15 mpk, day 8",568 ± 50 mm^3
same,Mean tumor volume,"[1]; 15 mpk, day 10",408 ± 31 mm^3
same,Mean tumor volume,"[1]; 15 mpk, day 13",374 ± 26 mm^3
same,Mean tumor volume,"[1]; 15 mpk, day 15",388 ± 36 mm^3
same,Mean tumor volume,"[1]; 15 mpk, day 17",361 ± 25 mm^3
same,Mean tumor volume,"[1]; 15 mpk, day 20",419 ± 31 mm^3
same,T/C,"[1]; 15 mpk, day 20",17.7%
same,TGI,"[1]; 15 mpk, day 20",101.8%
same,Tumor Volume,"[1]; 15 mpk, day 20, Mean ± SEM",419 ± 31 mm^3
(β-Ala)-Sar10-A(HArg)DC(HyP)LVNPLCLHP(D-Asp)W(HArg)C [Compound 66],binding to rat EphA2,[2],bind with high affinity
same,binding to mouse EphA2,[3],bind with high affinity
(β-Ala)-Sar10-A(HArg)DCPLVNPLCLHPGVVTC [Compound 67],binding to rat EphA2,[2],bind with high affinity
same,binding to mouse EphA2,[3],bind with high affinity
Ac-CPLVNPLCLHPGVVTCLHG-Sar6-(D-K) [Compound 77],binding to human EphA2,[4],binds
same,binding to mouse EphA2,[3],binds
